These results are taken from ChEMBL document CHEMBL5226299, “Targeting Lysosomal Degradation Pathways: New Strategies and Techniques for Drug Discovery” (J Med Chem, 2021).

The target in this experiment is Methionine aminopeptidase 2 (Homo sapiens) (UniProt P50579). The experiment can be described thus: Induction of MetAP-2 degradation in human HeLa cells at 10 uM relative to control. The experiment is classed as cell-based.
Sequence of Methionine aminopeptidase 2 (Homo sapiens) (P50579 2-478 limits assumed): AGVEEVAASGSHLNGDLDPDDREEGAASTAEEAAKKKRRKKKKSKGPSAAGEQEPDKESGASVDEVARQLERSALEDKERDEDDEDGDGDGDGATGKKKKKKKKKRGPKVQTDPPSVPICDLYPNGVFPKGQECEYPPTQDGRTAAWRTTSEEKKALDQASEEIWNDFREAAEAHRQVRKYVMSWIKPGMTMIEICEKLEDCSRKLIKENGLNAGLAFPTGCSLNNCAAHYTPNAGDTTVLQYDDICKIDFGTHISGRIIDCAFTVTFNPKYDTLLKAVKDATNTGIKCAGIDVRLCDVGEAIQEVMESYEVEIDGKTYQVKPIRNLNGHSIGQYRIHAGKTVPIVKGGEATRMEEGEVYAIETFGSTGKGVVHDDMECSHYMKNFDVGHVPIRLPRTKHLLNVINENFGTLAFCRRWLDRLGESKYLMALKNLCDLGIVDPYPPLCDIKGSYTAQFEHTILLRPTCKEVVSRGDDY

As to `CO[C@@H]1[C@H](OC(=O)NCCCOCCOCCOCCCNC(=O)[C@H](CSc2nc3c(=O)[nH]c(N)nc3n2Cc2ccc(F)cc2)NC(C)=O)CC[C@]2(CO2)[C@H]1[C@@]1(C)O[C@@H]1CC=C(C)C`, the Activity turned out to be 80%.
